Values joined by “and” are separate entries in the source; they are usually repeats but may differ in a detail not shown here. Equal values may be shown once.
Assays:
[1] = tested on: horses with black walnut extract induced laminitis; assay: Black walnut extract induced laminitis, treatment with donepezil; type: in vivo, horse
Description: Three domestic horses, average age 26, are corralled in close proximity to a Black Walnut tree with exposed roots and debris from black walnuts shells, including leaves. The weight of the horses is 1100-1200 lbs. Horses are quartered in a 24×36 square foot area with a Black Walnut tree within the confined area.
The horses are evaluated continuously after 6 hours of exposure to remove them from exposure to the black walnut extract once symptoms occur.
Subsequent doses are 50 mg on Day #3-7. Horses are given Timothy hay and water, but no other medicinal or mechanical interventions.
The same 3 horses are used in similar exposure design, as in the original experiment to induce laminitis. […] The dose is tapered to 50 mg orally on Days #3 through #7.

[2] = tested on: obese domestic cats with diabetes
Description: Five obese domestic cats with diabetes (average weight 14.2 lbs.) are on glargine insulin for glycemic control. […] All cats are being treated with glargine insulin in bid dosing schedule. […] Over a 14 day period morning blood glucose levels (prior to feeding) are recorded.

[3] = tested on: feline diabetic subjects; assay: Glucose Tolerance Test/Felines (ipGTT); type: in vivo, cat
Description: Glucose Tolerance Test/Felines. Four feline diabetic subjects (male, age 5-7 years) with newly diagnosed DM (diabetes). […] These 4 cats are subjected to intraperitoneal injection of 2 grams/kg glucose. (ipGTT). Blood glucose levels are obtained via Cephalic iv. catheter at 30 and 60 minutes.

[4] = tested on: cats with stage 3 and 4 renal disease; assay: Feline renal disease, serum creatinine pre and post treatment; type: in vivo, cat; design: Serum creatinine post treatment: unit not given here
Excerpt: This example measures feline renal disease. […] The average weight of the domestic cats was approximately 6 lbs.

[5] = after repeat exposure and treatment
[6] = first exposure, 3 horses, 100 mg orally Day 1-2, 50 mg Day 3-7
[7] = repeat exposure, same 3 horses, 100 mg Day 1-2, 50 mg Days 3-7
[8] = 4 cats, 1.25 mg daily for 4 weeks
[9] = individual cats #1-#4, donepezil 1.25 mg daily for 4 weeks
[10] = individual cats #1-#4, donepezil 1.25 mg daily for 4 weeks, 2 gm/kg glucose ip

COc1cc2c(cc1OC)C(=O)C(CC1CCN(Cc3ccccc3)CC1)C2 (centres unmarked) [donepezil]
Gait (horse movements) [1, 5]: no abnormalities | Lasting lameness or constitutional symptoms [1, 5]: No observable lasting lameness or constitutional symptoms | Systemic symptoms after day #7 ([1]; first exposure, 3 horses): No systemic symptoms are noted | All subjects appear normal by [1, 6]: ≤ 7 days | Normal activity noted as early as [1, 6]: 5 days | Warmth, posturing and trembling resolved by [1, 6]: ≤ 3 days | Resolution of symptoms and normal movements completed by [1, 7]: ≤ 7 days | Resolution of symptoms and normal movements observed at [1, 7]: 5 days | Dose of glargine insulin decreased to ([2]; #2 Cat, from 3 u. bid, secondary to low morning blood glucose): 2 units | Morning blood glucose levels (prior to feeding) during treatment ([2]; individual diabetic cats #1-#5 on glargine insulin, 1.25 mg donepezil orally daily, 14 day period): 88 to 113 mg/dL and 105 to 128 mg/dL and 96 to 117 mg/dL | 30 minutes blood glucose levels on average less than before treatment [3, 8]: approximately 24% | 60 minute GTT on average less than without treatment [3, 8]: 42% | Glucose tolerance (in words) ([3]; 4 weeks prior to ipGTT testing, versus same subjects before treatment): improved glucose tolerance | Decrease of 30 minute ipGTT blood glucose versus before treatment [3, 9]: 29% and 22% (2×) and 25% | Decrease of 60 minute ipGTT blood glucose versus before treatment [3, 9]: 42% and 39% and 41% and 46% | Blood glucose at 30 minutes in ipGTT [3, 10]: 269 mg/dL and 292 mg/dL and 278 mg/dL and 304 mg/dL | Blood glucose at 60 minutes in ipGTT [3, 10]: 152 mg/dL and 164 mg/dL and 145 mg/dL and 147 mg/dL | Improvement of creatinine in six cats ([4]; donepezil 2.5 mg daily over 4 week period): approximately 56% | Serum creatinine post treatment ([4]; individual cats 1-6, stage 3 or 4 renal disease, donepezil 2.5 mg daily for 4 weeks): 1.8 and 2.6 and 2.0 and 1.9 and 2.5 and 2.3 | Decrease of serum creatinine post versus pre treatment ([4]; individual cats 1-6, donepezil 2.5 mg daily for 4 weeks): 49% and 53% and 45% and 60% and 65% and 62%

From patent US20160166581A1 (priority 2014, published 2016)
